In US20180118718A1, “Substituted Quinoxaline Derivatives” (Selvita S.A., priority 2015, published 2018):
pIC50: −log10 of the molar value. Counter-ions that a name gives are not always drawn.

Each molecule was assayed against T1, Human recombinant His-tagged PFKFB3 (Homo sapiens, UniProt Q16875) (assay: PFKFB3 IC50 Determination Assay (in vitro kinase assay, modified ADP-Glo system)). Conditions: ATP 20 μM and fructose-6-phosphate 2 μM (Km), 25 nM PFKFB3, 2 h, rt, ADP-Glo luminescence.
T1 construct: His; made in house
Format: biochemical
Description: PFKFB3 IC50 Determination Assay
In vitro kinase assay used to determine IC50 values for tested inhibitors is based on a modified ADP-Glo™ system (Promega) and consists of two parts:
1. Kinase reaction—performed in optimized conditions. At this step PFKFB3 phosphorylates its substrate Fructose-6-phosphate using ATP as a source of phosphate to produce Fructose-2,6-bisphosphate and ADP. Reaction is performed at Km values for ATP and substrate using optimized buffer composition and time of the reaction. Human recombinant His-tagged PFKFB3 (PFKFB3 BATCH II SEC) with confirmed activity is produced and purified in-house. 2. Detection of ADP as a product of the reaction using ADP-Glo™ system. This part is conducted by using the commercially available kit ADP-Glo™ Kinase Assay (Promega, cat. No# V9103) according to manufacturer's instruction, modified by 5x dilutions of assay reagents (both ADP-Glo™ Reagent and Kinase Detection Solution).
Test compounds are dissolved in DMSO and then transferred to the V-bottom 96-well plate.
15 μL per well of Mix 1 is transferred to assay wells of 96-well white plate. […] Total reaction volume is 30 μL per well. Samples are tested in duplicates. Final concentration of DMSO in the reaction is 6.7%. Conditions needed for performing PFKFB3 (PFKFB3 BATCH II SEC) in vitro kinase assay are given below:
This protocol is based on Technical Bulletin, ADP-Glo™ Kinase Assay (Promega) and is adapted to 96-well plate containing 30 μL reaction mixture:
30 μL of 5x diluted ADP-Glo™ Reagent is added to each well of 96-well plate containing 30 μL of reaction mixture. The plate is incubated for 90 minutes on a shaker at RT. 60 μL of 5x diluted Kinase Detection Solution is added to each well of 96-well plate containing 60 μL of the solution (ratio of kinase reaction volume to ADP-Glo™ Reagent volume to Kinase Detection Solution volume is maintained at 1:1:2). Plate is incubated for 40 minutes on a shaker at RT, protected from light. Luminescence is measured in the plate reader Synergy 2 (BioTek).
Luminescent readouts for compounds tested in 10 concentrations (routinely from 100 μM to […], […] serial dilutions) in duplicates, as well as for positive control, are first normalized to no-substrate negative control by its subtraction. In the next step, % of normalized positive control is calculated for each data point and plotted against test compound concentration:
% of control percent of positive control normalized to no-substrate negative control Lumcpd luminescence of test compound Lumneg luminescence of no-substrate negative control Lumpos luminescence of positive control
IC50 parameter is determined by the GraphPad Prism 5.0 software [log(inhibitor) vs. response −Variable slope (four parameters)].

T1 sequence (Q16875 whole entry): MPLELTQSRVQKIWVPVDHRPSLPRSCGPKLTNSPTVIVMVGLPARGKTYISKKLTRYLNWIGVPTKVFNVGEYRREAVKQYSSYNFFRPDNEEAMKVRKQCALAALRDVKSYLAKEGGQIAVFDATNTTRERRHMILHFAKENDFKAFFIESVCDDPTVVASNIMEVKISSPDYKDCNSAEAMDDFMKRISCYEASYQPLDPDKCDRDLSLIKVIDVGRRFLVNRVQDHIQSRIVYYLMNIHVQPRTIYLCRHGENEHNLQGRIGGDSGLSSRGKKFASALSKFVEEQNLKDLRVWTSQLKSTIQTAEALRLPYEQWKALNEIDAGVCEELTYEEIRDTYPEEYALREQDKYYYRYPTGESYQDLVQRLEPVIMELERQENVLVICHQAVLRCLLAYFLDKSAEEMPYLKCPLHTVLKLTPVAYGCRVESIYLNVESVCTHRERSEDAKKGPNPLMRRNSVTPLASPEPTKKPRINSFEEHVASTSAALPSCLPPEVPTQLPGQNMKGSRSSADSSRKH

First: Cc1ccc(C(N)=O)c(-c2cc(Nc3cnccc3S(C)(=O)=O)cc3nccnc23)c1 [Example 128, 2-{7-[(4-methanesulfonylpyridin-3-yl)amino]quinoxalin-5-yl}-4-methylbenzamide]
Second: Cc1ccc(C)c(-c2cc(Nc3cnccc3S(C)(=O)=O)cc3nccnc23)c1 [Example 39, 8-(2,5-Dimethylphenyl)-N-(4-methanesulfonylpyridin-3-yl)quinoxalin-6-amine]
The pIC50 of the first is lower: 4.00 to 5.00 for the first, 6.00 to 9.00 for the second.

First: Cn1ccc2ccc(-c3cc(Nc4ccccc4S(=O)(=O)N4CCNCC4)cc4nccnc34)cc21 [Example 15, 8-(1-Methyl-1H-indol-6-yl)-N-[2-(piperazine-1-sulfonyl)phenyl]quinoxalin-6-amine trifluoroacetate]
Second: Cn1ccc2ccc(-c3cc(Nc4ccc[nH]c4=O)cc4nccnc34)cc21 [Example 14, 3-{[8-(1-Methyl-1H-indol-6-yl)quinoxalin-6-yl]amino}pyridin-2-ol]
The pIC50 of the first is lower: 5.00 to 6.00 for the first, 6.00 to 9.00 for the second. The second is the more potent here.

Cn1ccc2ccc(-c3cc(Nc4cnccc4-c4nn[nH]n4)cc4nccnc34)cc21 [Example 68, 8-(1-Methyl-1H-indol-6-yl)-N-[4-(1H-1,2,3,4-tetrazol-5-yl)pyridin-3-yl]quinoxalin-6-amine] and Cn1cnc(-c2ccncc2Nc2cc(-c3ccc4ccn(C)c4c3)c3nccnc3c2)c1 [Example 83, N-[4-(1-Methyl-1H-imidazol-4-yl)pyridin-3-yl]-8-(1-methyl-1H-indol-6-yl)quinoxalin-6-amine] fall in the same range of pIC50: 6.00 to 9.00 for the first, 6.00 to 9.00 for the second.

Compared with COc1ccc(C)c(-c2cc(Nc3cnccc3S(C)(=O)=O)cc3nccnc23)c1 [Example 153, N-(4-Methanesulfonylpyridin-3-yl)-8-(5-methoxy-2-methylphenyl)quinoxalin-6-amine], Cc1ccc(-c2cc(Nc3cnccc3S(C)(=O)=O)cc3nccnc23)cc1N [Example 75, 8-(3-Amino-4-methylphenyl)-N-(4-methanesulfonylpyridin-3-yl)quinoxalin-6-amine] is higher in pIC50: 5.00 to 6.00 for the first, 6.00 to 9.00 for the second.

COC(=O)c1ccc(S(C)(=O)=O)c(Nc2cc(-c3ccc4ccn(C)c4c3)c3nccnc3c2)c1 [Example 115, Methyl 4-methanesulfonyl-3-{[8-(1-methyl-1H-indol-6-yl)quinoxalin-6-yl]amino}benzoate] and CC(=O)Nc1ccc(S(C)(=O)=O)c(Nc2cc(-c3ccc4ccn(C)c4c3)c3nccnc3c2)c1 [Example 41, N-(4-Methanesulfonyl-3-{[8-(1-methyl-1H-indol-6-yl)quinoxalin-6-yl]amino}phenyl)acetamide] fall in the same range of pIC50: 5.00 to 6.00 for the first, 5.00 to 6.00 for the second.

CC(=O)N1CCN(c2ccncc2Nc2cc(-c3ccc4ccn(C)c4c3)c3nccnc3c2)CC1 [Example 82, 1-[4-(3-{[8-(1-Methyl-1H-indol-6-yl)quinoxalin-6-yl]amino}pyridin-4-yl)piperazin-1-yl]ethan-1-one] and CN1CCOC(CNC(=O)c2ccncc2Nc2cc(-c3ccc4ccn(C)c4c3)c3nccnc3c2)C1 (centres unmarked) [Example 137, 3-{[8-(1-methyl-1H-indol-6-yl)quinoxalin-6-yl]amino}-N-[(4-methylmorpholin-2-yl)methyl]pyridine-4-carboxamide] fall in the same range of pIC50: 6.00 to 9.00 for the first, 6.00 to 9.00 for the second.

Cn1ccc2ccc(-c3cc(Nc4cncc5c4OCCN5)cc4nccnc34)cc21 [Example 84, 8-(1-Methyl-1H-indol-6-yl)-N-{2H,3H,4H-pyrido[4,3-b][1,4]oxazin-8-yl}quinoxalin-6-amine] and Cn1ccc2ccc(-c3cc(Nc4cncnc4C(N)=O)cc4nccnc34)cc21 [Example 149, 5-{[8-(1-methyl-1H-indol-6-yl)quinoxalin-6-yl]amino}pyrimidine-4-carboxamide] fall in the same range of pIC50: 6.00 to 9.00 for the first, 6.00 to 9.00 for the second.

CS(=O)(=O)c1ccncc1Nc1cc(-c2ccc3occ(CCl)c3c2)c2nccnc2c1 [Example 58, 8-[3-(Chloromethyl)-1-benzofuran-5-yl]-N-(4-methanesulfonylpyridin-3-yl)quinoxalin-6-amine] and CS(=O)(=O)c1ccncc1Nc1cc(-c2ccc3nc[nH]c3c2)c2nccnc2c1 [Example 61, 8-(1H-1,3-Benzodiazol-5-yl)-N-(4-methanesulfonylpyridin-3-yl)quinoxalin-6-amine] fall in the same range of pIC50: 4.00 to 5.00 for the first, 4.00 to 5.00 for the second.

Cc1coc2ccc(-c3cc(Nc4cnccc4C#N)cc4nccnc34)cc12 [Example 24, 3-{[8-(3-methyl-1-benzofuran-5-yl)quinoxalin-6-yl]amino}pyridine-4-carbonitrile] and Cc1coc2ccc(-c3cc(Nc4cnccc4C(N)=O)cc4nccnc34)cc12 [Example 26, 3-{[8-(3-Methyl-1-benzofuran-5-yl)quinoxalin-6-yl]amino}pyridine-4-carboxamide] fall in the same range of pIC50: 6.00 to 9.00 for the first, 6.00 to 9.00 for the second.

Cn1ccc2ccc(-c3cc(Nc4cc([N+](=O)[O-])ccc4S(C)(=O)=O)cc4nccnc34)cc21 [Example 35, N-(2-Methanesulfonyl-5-nitrophenyl)-8-(1-methylindol-6-yl)quinoxalin-6-amine] and Cn1ccc2ccc(-c3cc(Nc4cc(N)ccc4S(C)(=O)=O)cc4nccnc34)cc21 [Example 36, 6-Methanesulfonyl-N1-[8-(1-methyl-1H-indol-6-yl)quinoxalin-6-yl]benzene-1,3-diamine] fall in the same range of pIC50: 6.00 to 9.00 for the first, 6.00 to 9.00 for the second.

Compared with CN1CCN(c2ccc(S(C)(=O)=O)c(Nc3cc(-c4ccc5ccn(C)c5c4)c4nccnc4c3)c2)CC1 [Example 45, N-[2-Methanesulfonyl-5-(4-methylpiperazin-1-yl)phenyl]-8-(1-methyl-1H-indol-6-yl)quinoxalin-6-amine], Cn1ccc2ccc(-c3cc(Nc4cccnc4S(C)(=O)=O)cc4nccnc34)cc21 [Example 6, N-(2-Methanesulfonylpyridin-3-yl)-8-(1-methyl-1H-indol-6-yl)quinoxalin-6-amine] is higher in pIC50: 5.00 to 6.00 for the first, 6.00 to 9.00 for the second. The second is the more potent here.

CS(=O)(=O)c1ccncc1Nc1cc(-c2ccc(S(F)(F)(F)(F)F)cc2)c2nccnc2c1 [Example 213, N-(4-Methanesulfonylpyridin-3-yl)-8-[4-(pentafluoro-λ^6-sulfanyl)phenyl]quinoxalin-6-amine] and CN(C)c1nc2cc(-c3cc(Nc4cnccc4S(C)(=O)=O)cc4nccnc34)ccc2s1 [Example 201, 8-[2-(Dimethylamino)-1,3-benzothiazol-5-yl]-N-(4-methanesulfonylpyridin-3-yl)quinoxalin-6-amine] fall in the same range of pIC50: 4.00 to 5.00 for the first, 4.00 to 5.00 for the second.

Cn1ccc2ccc(-c3cc(Nc4cnccc4C(=O)Oc4ccnc(N)n4)cc4nccnc34)cc21 [Example 160, 2-Aminopyrimidin-4-yl3-{[8-(1-methyl-1H-indol-6-yl)quinoxalin-6-yl]amino}pyridine-4-carboxylate] and Cn1ccc2ccc(-c3cc(Nc4cnccc4C(=O)NCc4cccnn4)cc4nccnc34)cc21 [Example 144, 3-{[8-(1-Methyl-1H-indol-6-yl)quinoxalin-6-yl]amino}-N-[(pyridazin-3-yl)methyl]pyridine-4-carboxamide] fall in the same range of pIC50: 6.00 to 9.00 for the first, 6.00 to 9.00 for the second.

Compared with Cn1ccc2ccc(-c3cc(Oc4cnccc4C(=O)O)cc4nccnc34)cc21 [Example 198, 3-{[8-(1-methyl-1H-indol-6-yl)quinoxalin-6-yl]oxy}pyridine-4-carboxylic acid], Cn1ccc2ccc(-c3cc(Oc4cnccc4C#N)cc4nccnc34)cc21 [Example 47, 3-{[8-(1-Methyl-1H-indol-6-yl)quinoxalin-6-yl]oxy}pyridine-4-carbonitrile] is higher in pIC50: 4.00 to 5.00 for the first, 6.00 to 9.00 for the second.

First: Cc1coc2ccc(-c3cc(Nc4cc(N)ccc4S(C)(=O)=O)cc4nccnc34)cc12 [Example 102, 6-Methanesulfonyl-N1-[8-(3-methyl-1-benzofuran-5-yl)quinoxalin-6-yl]benzene-1,3-diamine]
Second: CCc1cc(CC)cc(-c2cc(Nc3cnccc3S(C)(=O)=O)cc3nccnc23)c1 [Example 192, 8-(3,5-Diethylphenyl)-N-(4-methanesulfonylpyridin-3-yl)quinoxalin-6-amine]
The pIC50 of the first is higher: 6.00 to 9.00 for the first, 5.00 to 6.00 for the second. The first is the more potent here.

Compared with Cn1ccc2cc(-c3cc(Nc4cnccc4C#N)cc4nccnc34)ccc21 [Example 28, 3-{[8-(1-Methyl-1H-indol-5-yl)quinoxalin-6-yl]amino}pyridine-4-carbonitrile], Cn1cncc1CNC(=O)c1ccncc1Nc1cc(-c2ccc3ccn(C)c3c2)c2nccnc2c1 [Example 143, N-[(1-methyl-1H-imidazol-5-yl)methyl]-3-{[8-(1-methyl-1H-indol-6-yl)quinoxalin-6-yl]amino}pyridine-4-carboxamide] is higher in pIC50: 4.00 to 5.00 for the first, 6.00 to 9.00 for the second. The second is the more potent here.
